In publication PMC11788822, “Uncovering the potent antimicrobial activity of squaramide based anionophores – chloride transport and membrane disruption” (Chemical Science, 2025):
Like-named read-outs stand apart in the source and are kept apart here.

What was measured:
[1] = tested on: panel of Gram-positive and -negative pathogens; test: Zone of inhibition assay; assay type: cell-based; conditions: 5 μL of 1 mM stock on nutrient agar, 37 °C, 24 h; radius ≤ 2 mm deemed not active
Experimental: To do this, a zone of inhibition assay was used as a qualitative measure of activity. To do so, 5 μL of a 1 mM stock of the respective compound was pipetted atop nutrient agar which was previously spread with a panel of Gram-positive and -negative pathogens of interest. Following incubation at 37 °C for 24 h, zones of inhibition were measured and recorded for each compound. Zones with a radius ≤ 2 mm were deemed as not active, and thus eliminated from further study.

S. aureus = test: DNA release luminescence assay with Ru(phen)2(dppz)Cl2; assay type: cell-based, Staphylococcus aureus; conditions: 100 μM, 1 h, vs untreated control
Experimental: In addition to assays monitoring the uptake of PI, luminescence assays to monitor the release of cellular components such as DNA/RNA were also undertaken. Using Ru(phen)2(dppz)Cl2, which acts as a highly sensitive, “off-to-on” emissive probe for nucleic acids (NA),[49–51] we assessed the levels of NA release from cells upon treatment with 1, 2, and 4 (100 μM) by comparing emission intensity of the complex in the absence of nucleic acids, to untreated controls, and treated samples (Fig. 4C). When Ru(phen)2(dppz)Cl2 was added to sterile nutrient broth, which lacks nucleic acids, emission from the ^3MLCT band (ca. 620 nm) is highly quenched, however, when added to culture supernatant in the absence of treatment with 1, 2, or 4 we see a large increase in ^3MLCT derived luminescence indicating the presence of nucleic acids in the solution. This initial luminescence increase is unsurprising, as S. aureus is known to release DNA under active growth conditions, in the form of eDNA,[52] which acts as a chemical messenger for microbial species.[53] […] This additional increase in luminescence indicates a heightened level of extracellular NA and may be another indication of membrane disruption. […] Indeed, a significant increase in luminescence would not be expected, as the release of large architectures such as those observed for nucleic acids is slow, due to the bulk of the biomolecules.
(§1) 1 mL aliquots of S. aureus cultures brought to early stationary phase overnight were brought to an OD600 = 0.2 and 100 µL of this suspension was added to 96 well plates, whereafter 100 µL of PBS containing; no compound (- control), or compound (2x desired concentration) was added to the suspension. The resultant mixture was incubated at 37 °C for 2 hr whereafter fluorescence intensity from PI (DNA bound form) was quanitified (λ exc/em = 535/615 nm) using a Clariostar plate reader. In the case of time course experiments, Measurement cycles were set for two hours, following addition of the respective compound (T0). Fluorescence was subsequently plotted as F/F0.
DNA release luminescence assay […]

[2] = tested on: methicillin-resistant S. aureus (MRSA); test: Growth inhibition assay, MRSA; assay type: cell-based, Staphylococcus aureus; conditions: 24 h
Experimental: To determine IC50/80 values, growth (optical density) of S. aureus, methicillin-resistant S. aureus (MRSA), P. aeruginosa, and K. pneumoniae when treated with a range of concentrations of each active compound in vitro was measured at 600 nm after a 24 h incubation period at 37 °C. Each compound was studied for activity below […], and those showing little activity above 200 μM, were noted as such, and omitted from further study.
Staphylococcus aureus culture conditions […]
Methicillin-resistant Staphylococcus aureus culture conditions
Methicillin-resistant S. aureus (clinical isolate – St. James’ University Hospital, Dublin) was cultured at 37 °C in Nutrient broth (Oxoid), containing 25 µg/mL Ampicillin in an orbital shaker at 200 rpm. Stocks were kept on nutrient agar containing 25 µg/mL Ampicillin, stored at 4 °C for up to 2 months, or as glycerol stocks (50/50 glycerol:culture), stored at -70 °C indefinitely. […]
Bacterial cultures were brought to early stationary phase overnight, in nutrient broth (containing 25/50 µg/mL Ampicillin for MRSA/K. pneumoniae, respectively) at 37 °C. Cultures were diluted to an OD600 = 0.01. Aliquots of Culture (100 µl) were added to 100 µL serially diluted compound (200 – 0.78 µM) in nutrient broth in a 96-well plate (Sarstedt, Germany).
Plates were incubated at 37 °C for 24 h and growth was measured at 600 nm, where growth was measured and represented relative to control. […]

S. aureus cells = test: Propidium iodide membrane integrity assay; assay type: cell-based, Staphylococcus aureus; conditions: for propidium iodide fluorescence vs basal (emission around 615 nm): two hours of treatment, various concentrations
From the text: To study whether compounds 1, 2, and 4 do indeed accumulate in the membrane, and yield a depolarising effect, or compromise its integrity we utilised propidium iodide (PI), a red-emissive (λmax(em) = 617 nm) cell-impermeable fluorophore. PI undergoes a fluorescence increase upon internalisation and DNA intercalation, and thus under ordinary circumstances PI fluorescence is quenched, but if membrane integrity is compromised, a fluorescence “turn-on” occurs. After two hours of treatment with 1, 2, and 4, PI fluorescence was compared to basal fluorescence from the fluorophore. […] This clear membrane depolarising effect was less obvious for 4, and follows the trend of the observed transport, and toxicity results. However, it is of note that each compound can effectively promote an influx of PI through membrane depolarisation.
To further investigate the rate of this phenomenon, PI fluorescence was monitored as a function of time, upon treatment of S. aureus with 1 at a concentration of 50 μM (Fig. 4B).
as §1, with “F/F0. […]” for “F/F0.”
Statistical analysis of biological data: All biological experiments were carried out in triplicate, making use of cells of differing origins, on three independent occasions. With experiments concerning the use of 96-well plates, all experiments were carried out as three biological replicates of eight technical replicates. All data is presented as the mean + SEM of each replicate, unless specified otherwise. All statistical analysis and significance determination was carried out using the Graphpad Prism 8.0.1 software package.

[3] = Staphylococcus aureus, MRSA, read-out: MRSA IC50, growth (OD 600 nm) relative to control, 24 h, 37 °C
[4] = Staphylococcus aureus, MRSA, read-out: MRSA IC80, growth (OD 600 nm) relative to control, 24 h, 37 °C

Row | SMILES | zone of inhibition, qualitative measure of activity [1] | Ru(phen)2(dppz)Cl2 luminescence in culture supernatant (nucleic acid release) (S. aureus) | IC50 [2, 3] [µM] | IC80 [2, 4] [µM] | IC50 ([2]; read-out: MRSA IC50, growth (OD 600 nm) relative to control, 37 °C) [µM] | propidium iodide fluorescence as a function of time (S. aureus cells; 50 μM, over two hours) | propidium iodide fluorescence vs basal (emission around 615 nm) (S. aureus cells) | MRSA IC80 ([2]; growth (OD 600 nm) relative to control, 37 °C) | IC80 ([2]; read-out: MRSA IC80, growth (OD 600 nm) relative to control, 37 °C) [µM]
1 | O=c1c(Nc2cc(C(F)(F)F)cc(C(F)(F)F)c2)c(NC23CC4CC(CC(C4)C2)C3)c1=O [Compound 1] | promising bioactivity | further increased | 1.56 | 200 | 1.6 | increase in the fluorescence of PI | greatly increased | – | –
2 | O=c1c(Nc2ccc(Cl)c(Cl)c2)c(NC23CC4CC(CC(C4)C2)C3)c1=O [Compound 2] | promising bioactivity | further increased | 25 | > 200 | – | – | greatly increased | exceeded the testing range | –
3 | O=c1c(Nc2ccc([N+](=O)[O-])cc2)c(NC23CC4CC(CC(C4)C2)C3)c1=O [Compound 4] | promising bioactivity | further increased | 50 | > 200 | – | – | less obvious | – | > 200
